Where two headings read alike, the source gives them in different places.
Key:
[1] = Solubilization in dosing vehicle recipes; assay type: physicochemical
Method: The compound was assessed for solubilization in 5 different vehicle recipes: • 1. Physiological saline (0.9% NaCl solution in water) • 2. Kolliphor HS—physiological saline (20%:80%) • 3. DMSO-PEG400—physiological saline (20%:50%:30%) • 4. PEG400—5% dextrose in water (75%:25%) • 5. DMSO-Cremophor EL—5% Mannitol (10%:10%:80%)
To prepare the formulation using the DMSO-PEG400 —physiological saline (20%:50%:30%) recipe, the compound was first supplemented with the calculated volume of DMSO, vortexed for 1 minute and sonicated for 2 minutes at 40° C. Next, PEG400 and physiological saline were added. The final mixture was vortexed and sonicated for 2 minutes at 40° C. The working formulations batch was prepared for 1 h prior to the in vivo study.

[2] = test system: HCV-JC1-Luc; assay: Validation of antiviral effects of 20 hits: release of infectious HCV-JC1-Luc particles from Huh7.5 cells; assay type: cell-based, Hepatitis C virus; details: 10 μM, among the best 20 candidates
Method: Huh7.5 cells were electroporated with HCV-JC1-Luc (reporter virus expressing luciferase via IRES) RNA and treated 24 h later with the best 20 candidates (10 μM). After another 24 h the supernatants were harvested. To quantify infectious particles, untreated Huh7.5 cells were inoculated with the supernatants and 36 h later the luciferase activity was measured. The viability of the same cells was determined 24 h after treatment with inhibitor by MTT assay (tetrazolium salt which is reduced in metabolically active cells resulting in a color change). For both parameters, 100% corresponds to the release or viability of the untreated or DMSO treated control. uninf.=not infected; untr.=not treated. Mean values and SD were derived from n =3 independent infections.
Huh7.5 hepatocellular carcinoma cells were electroporated with HCV-JC1-Luc (reporter virus expressing luciferase via IRES) RNA and treated 24 h later with the best 20 candidates (10 μM) identified in Example 1. After another 24 h, the supernatants were harvested. To quantify infectious particles, untreated Huh7.5 cells were inoculated with the supernatants and luciferase activity was measured 36 h later (FIG. 2).

[3] = test system: DENV-2; assay: Antiviral effect on DENV (virus release and entry), Vero cells, MOI 5; assay type: cell-based, Dengue virus; details: co-treatment
Method: (A) Vero cells were seeded and infected with DENV-2 at a multiplicity of infection (MOI) of 5. For co-treatment cells were incubated with a premixed suspension of drug and virus, for post-treatment with virus only for 2 h. Cells were subsequently washed with PBS and cultivated for co-treatment in DMEM supplemented with 2% FCS, for post-treatment in DMEM supplemented with 2% FCS spiked with the indicated concentrations of C10. The drug containing medium for post-treated cells was removed after 2 h and replenished with fresh DMEM supplemented with 2% FCS. 24 h after infection the supernatants were used for a Plaque assay. (B) RNA extraction; n=3 with SEM. (C, D) Cells were lysed for Western blot analysis using antibodies against viral proteins NS3 and NS5 and tubulin as a loading control.
For this purpose, Vero cells were plated and infected with DENV-2 at an infection multiplicity (MOI) of 5. For co-treatment, the cells were incubated with a previously mixed suspension of active substance and virus, for post-treatment with the virus alone, each for 2 h. The cells were then washed with PBS and cultivated for co-treatment in DMEM with 2 % FCS, for post-treatment in DMEM with 2 % FCS mixed with the indicated concentrations of compound C10. For the post-treated cells, the medium containing the active substance was removed after 2 h and replaced by fresh medium with 2 % FCS. […]

[4] = test system: DENV3; assay: Plaque assay of released virus, DENV3-infected Vero cells; assay type: cell-based; details: Dengue virus
Method: Vero cells were infected with DENV1-4 at an MOI of 1 for 2 h (post infection, p.i., (A)), after which virus was removed, and fresh maintenance medium containing 2% FCS together with the indicated concentration of C10 added. For co-treat condition (c.t., (B)), Vero cells were infected with DENV1-4 at an MOI of 1 in the presence of C10 for 2 h, followed by removal of the virus/C10 inoculums, and addition of fresh 2% fetal calf serum maintenance medium. […] Results represent the mean ±SD for duplicate wells from a single assay, representative of 2 independent experiments (cf. Tables 2A and 2B, infra, for pooled data).
Vero and BHK-21 cells were maintained in DMEM media supplemented with 10% heat-inactivated FBS at 37° C. in a humidified incubator supplemented with 5% CO2; A549 cells were maintained in F-12K medium supplemented with 10% heat-inactivated Fetal Bovine Serum (FBS), 2 mM L-glutamine, 50 U/I penicillin, 0.05 mg/l streptomycin. […] Viral titer was subsequently determined by plaque assay (see below).
Vero cells were seeded into 24-well plates at a density of 2×10^5 cells/well and grown overnight in culture medium at 37° C. with 5% CO2 prior to infection with RSV, KUNV, ZIKV as indicated. […] The stain was removed by rinsing the cells with tap water, and the viral plaques were counted visually. […]

SMILES: CCN1/C(=C\C=C\c2sc3cc(NC(C)=O)ccc3[n+]2CC)Sc2cc(NC(C)=O)ccc21.[I-] [C10, 6-acetamido-2-((1E,3E)-3-(6-acetamido-3-ethylbenzo[d]thiazol-2(3H)-ylidene)prop-1-en-1-yl)-3-ethylbenzo[d]thiazol-3-ium iodide]
- solubility ([1]; 5 vehicle recipes): very low solubility
- concentration of full dissolution ([1]; only in DMSO-PEG400-physiological saline (20%:50%:30%)): 1000 µg/mL
- antiviral activity (release of infectious particles) [2]: highest antiviral activity
- viral proteins in cells (Western blot NS3, NS5) ([3]; 1 μM, compared to DMSO): viral proteins are detectable in the cells, albeit at lower amounts
- productive infection (Western blot NS3, NS5) ([3]; 10 μM): prevents a productive infection of the cells
- EC50 ([4]; read-out: EC50 from plaque assays, DENV3, c.t.): 10 nM
- EC50 ([4]; read-out: EC50 from plaque assays, DENV3, p.i.): 600 nM

From patent US12527773B2, “Flavi-block: a pan-flavivirus inhibitor” (Baden-Württemberg Stiftung GmbH, priority 2020, dated 2026)
